In a melting point compilation (Tetko et al.; mined from patent text by program, amines drawn as free bases though some values may be those of a salt):

| SMILES | melting point [°C] |
| --- | --- |
| CON1CCC2(CC1)NC(=O)C(c1cc(Br)c(F)cc1C)=C2O | 229 to 230 |
| CCCCCCCCCCNC(=O)OC1CCN(C(=O)OCCCCCCNC(=O)Oc2ccc(Oc3ccccc3)cc2)CC1 | 87 to 91 |
| CCCOC(=O)C1=C(N)NC(C)=C(C(=O)OCC)C1c1ccccc1C#N (centres undefined) | 182 |
| O=C(O)c1cccc(-c2cc(-c3ccc(Cl)cc3)on2)c1 | 293 to 295 |
| CCCC[N+]([O-])=Cc1ccc(OCc2ccccc2)c(OC)c1 | 81.2 |
| CS(=O)(=O)c1ccc(C2=C(c3ccc(F)cc3)CC(C(F)(F)F)(C(F)(F)F)C2)cc1 | 138 |
| CC(C)(O)CCCCCc1cccc(C=Cc2cc(CO)cc(CO)c2)c1 | 108 to 109 |
| Cn1cc(S(=O)(=O)NCc2ccccc2)c(=O)c2ccc(Cl)cc21 | 208 to 210 |
| NS(=O)(=O)c1cc2c(s1)S(=O)(=O)N(CCN1CCOCC1)N=C2 | 164 to 166 |
| CCOC(=O)c1[nH]c2cccnc2c1-c1ccc([N+](=O)[O-])cc1 | 234 to 236 |
| Cc1ccc(C2=NC(C)(C)[C@@H](c3ccncc3)C2)c(C)c1 | 50 to 51 |
| Cc1c(Br)cc(Br)c(NC(=O)CBr)c1Br | 207 to 209 |
| CCCCCCCCCCCCSc1cc2nc(C(CC)CCCC)oc2cc1[N+](=O)[O-] (centres undefined) | 108 to 110 |
| CC(Nc1ccccc1N)=C1C(=O)OC(=O)C(C(=O)C=Cc2ccc(O)cc2)=C1O | 223 to 225 |
| CSc1noc(-c2ccc(O)cc2)c1C#N | 194 to 196 |
| CNC(=S)Nc1ccccc1-c1nc(C)c(-c2cccnc2)[nH]1 | 192 to 193 |
| CCCc1nc2c(N)nc3ccccc3c2n1CC(=O)OCC | 170 to 172 |
| O=C(COc1ccc(-c2cc3ccc(OCC(=O)c4ccc(Cl)cc4)cc3s2)cc1)c1ccc(Cl)cc1 | 210 |
| O=c1[nH]c2ccc(Cl)cc2n1CCCN1CCN(C(c2ccccc2)c2ccccc2)CC1 | 132 |
| CC(C)Oc1ccc(-n2c(C(=O)O)c(Cl)c3cc(Oc4ccc(C(F)(F)F)cc4)ccc32)cc1 | 148 to 150 |
| CN1CC=C(c2ccccc2Cc2ccccc2)CC1 | 55 to 57 |
| Cc1cc2nc(/C=C/c3ccccc3)n(-c3ccccn3)c2cc1C | 136 to 137 |
| COc1ccc(C=C(C(C)=O)C(C)=O)cc1 | 70 to 72 |
| NCCNc1ccc2ncc(Br)n2n1 | 158 to 159 |
| CC1(C)NCC(c2ccccc2)=NO1 | 93 to 95 |

| SMILES | melting point [°C] |
| --- | --- |
| CCc1nn(C2CCCC2)c2cc(C(=O)Nc3c(Cl)cccc3Cl)ccc12 | 177 to 179 |
| COc1ccc(N2CCOCC2)c2sc(NC(=O)c3ccnc(CN(C)C(C)=O)c3)nc12 | 228 to 230 |
| CCCn1cncc1CSc1nc2ccc([N+](=O)[O-])cc2[nH]1 | 189 to 190 |
| OCCc1nccn1CCCc1cccc(O)c1 | 111 to 113 |
| Nc1cccc(Cc2ccccc2)n1 | 50.7 |
| CC(=NS(=O)(=O)C=Cc1c(Cl)cccc1Cl)NC1CC1 | 121 to 124 |
| CCN(C(=O)Cn1c(=O)n(C)c2nc(-c3ccccc3)nc(OC)c21)c1ccccc1 | 173 to 175 |
| C[C@H](Nc1ncnc2[nH]cnc12)c1oc2ccccc2c(=O)c1-c1ccccc1 | 135 to 138 |
| O=S(=O)(NCCCOc1cccc2nccn12)c1ccccc1 | 155 to 156 |
| CCOC(=O)Cc1c(C(=O)O)c(Br)c(C(=O)c2ccc(Cl)cc2)n1C | 183 to 185 |
| CCCc1c(OCCOc2ccc(C(=O)NCCCCc3cccnc3)cc2)ccc(C(C)=O)c1O | 93 |
| O=Cc1cccnc1Br | 74 to 76 |
| CCOc1ccc2c(c1)n(C1CCCCC1)c(=O)n2Cc1ccc(C(=O)NC(C)(C)CC)cc1OC | 164 |
| COc1cc(N(C)C)c(Cl)cc1C(=O)NC1CCN(Cc2ccccc2)C1 (centres undefined) | 85 to 86 |
| O=C(NN1CCCCC1)C1=NN(c2ccc(Cl)cc2Cl)C(c2ccc(Cl)cc2)C1 (centres undefined) | 75 to 78 |
| C1=Cc2ccccc2C(C2CCN(C3CCCCC3)CC2)c2ccccc21 | 162 to 164 |
| C=CCSc1cc(C(=O)O)cc(N=Nc2cc(C(=O)O)cc(SCC=C)c2C(=O)c2ccccc2)c1C(=O)c1ccccc1 | 162 to 163 |
| CCOc1nc(-c2cccc(Cl)c2)c2cc(C(O)(c3ccc(C(=O)OC(C)C)cc3)c3cncn3C)ccc2n1 (centres undefined) | 145 |
| c1cc(Nc2nccc(-c3ccco3)n2)cc(-n2ccnc2)c1 | 175 to 178 |
| O=c1c(CCCc2ccncc2)cc2cccnc2n1-c1cccnc1 | 178 to 180 |
| COc1ccc2c(=O)c3ccccc3oc2c1 | 127 to 129 |
| CC1(C)N=C(Cl)c2cc(C#N)ccc2O1 | 124 to 126 |
| CN1C(=O)CN(CCc2ccccc2)C1=O | 113 to 114 |
| O=c1[nH]c2[nH]c3ccc(Cl)cc3c2c2ccccc12 | > 300 |
